Measured values as given in US20230312587A1, “PTERIDINONE COMPOUNDS AND USES THEREOF” (Vertex Pharmaceutical Incorporated, priority 2018, published 2023).
Read-outs that look alike come from different tables or passages of the source.

System: β-catenin-TCF-mediated reporter transcription activity in Colo 205 cells
Test: Colo 205 reporter assay (TCF/LEF luciferase)
Format: cell-based
Details: Colo 205 TCF/LEF luciferase reporter, five hours after addition of compound, read-out: TCF reporter Colo205 IC50
In short: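 Luciferase signal from a TCF/LEF-driven reporter, stably integrated in Colo 205 colon cancer cells, was measured 5 h after compound addition.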

SMILES	IC50 (Homo sapiens, COLO 205, 5 h)	IC50
Cc1nc(NCc2cn(Cc3cc(F)c(F)c(F)c3)nn2)nc2c1NC(=O)[C@H](C(C)C)N2C [Compound 452, (S)-7-isopropyl-4,8-dimethyl-2-(((1-(3,4,5-trifluorobenzyl)-1H-1,2,3-triazol-4-yl)methyl)amino)-7,8-dihydropteridin-6(5H)-one]	< 300 nM	–
Cc1nc(NCc2cnn(Cc3ccc(N(C)C)nc3)c2)nc2c1NC(=O)[C@H](C)N2C [Compound 196, (7S)-2-(((1-((6-(dimethylamino)pyridin-3-yl)methyl)-1H-pyrazol-4-yl)methyl)amino)-4,7,8-trimethyl-7,8-dihydropteridin-6(5H)-one]	300 to 1000 nM	–
Cc1nc(N[C@H]2C[C@H](NC(=O)Nc3ccc(Cl)nc3)C2)nc2c1NC(=O)[C@H](C)N2C [Compound 463, 1-(6-chloropyridin-3-yl)-3-(trans-3-(((S)-4,7,8-trimethyl-6-oxo-5,6,7,8-tetrahydropteridin-2-yl)amino)cyclobutyl)urea]	≥ 5000 nM	–
COc1ccc(O[C@H]2C[C@H](Nc3nc(C)c4c(n3)N(C)[C@@H](C)C(=O)N4)C2)cc1OC [Compound 352, (7S)-2-((trans-3-(3,4-dimethoxyphenoxy)cyclobutyl)amino)-4,7,8-trimethyl-7,8-dihydropteridin-6(5H)-one]	1000 to 5000 nM	–
COc1ccc(Cn2cc(CNc3nc(C)c4c(n3)N(C)[C@@H](C(C)C)C(=O)N4)cn2)cn1 [Compound 429, (7S)-7-isopropyl-2-(((1-((6-methoxypyridin-3-yl)methyl)-1H-pyrazol-4-yl)methyl)amino)-4,8-dimethyl-7,8-dihydropteridin-6(5H)-one]	< 300 nM	–
Cc1nc(NC2CC(C)(OCc3cc(F)c(F)c(F)c3)C2)nc2c1NC(=O)[C@H](C)N2C (stereo in doubt) [Compound 290, (7S)-4,7,8-trimethyl-2-((cis-3-methyl-3-((3,4,5-trifluorobenzyl)oxy)cyclobutyl)amino)-7,8-dihydropteridin-6(5H)-one]	–	≥ 5000 nM
Cc1nc(N[C@H]2C[C@@H](Cn3nc(N)cc3C(F)(F)F)C2)nc2c1NC(=O)[C@H](C(C)C)N2C [Compound 584, (S)-2-((cis-3-((3-amino-5-(trifluoromethyl)-1H-pyrazol-1-yl)methyl)cyclobutyl)amino)-7-isopropyl-4,8-dimethyl-7,8-dihydropteridin-6(5H)-one]	≥ 5000 nM	–
[2H]C([2H])([2H])N1C(=O)[C@H](C)N(C)c2nc(N[C@H]3C[C@H](Oc4cc(F)c(F)c(F)c4)C3)nc(C)c21 [Compound 327, (7S)-4,7,8-trimethyl-5-(methyl-d3)-2-((trans-3-(3,4,5-trifluorophenoxy)-cyclobutyl)-amino)-7,8-dihydropteridin-6(5H)-one]	< 300 nM	–
COCC1(C)C(=O)Nc2c(C)nc(NCc3cnn(Cc4cc(C(F)(F)F)nn4C)c3)nc2N1C (stereo not drawn) [Compound 704, 7-(methoxymethyl)-4,7,8-trimethyl-2-(((1-((1-methyl-3-(trifluoromethyl)-1H-pyrazol-5-yl)methyl)-1H-pyrazol-4-yl)methyl)amino)-7,8-dihydropteridin-6(5H)-one]	< 300 nM	–
CNc1ccc(Cn2cc(CNc3nc(C)c4c(n3)N(C)[C@@H](C)C(=O)N4)cn2)cn1 [Compound 10, (7S)-4,7,8-trimethyl-2-(((1-((6-(methylamino)pyridin-3-yl)methyl)-1H-pyrazol-4-yl)methyl)amino)-7,8-dihydropteridin-6(5H)-one]	≥ 5000 nM	–
Cc1nc(N[C@H]2C[C@H](Oc3cncc(C(F)(F)F)c3)C2)nc2c1NC(=O)[C@H](C)N2C [Compound 315, (7S)-4,7,8-trimethyl-2-((trans-3-((5-(trifluoromethyl)pyridin-3-yl)oxy)cyclobutyl)amino)-7,8-dihydropteridin-6(5H)-one]	< 300 nM	–
Cc1nc(N[C@H]2C[C@H](Cn3nccc3C(F)(F)F)C2)nc2c1NC(=O)C1(CCOC1)N2C (relative stereo) [Compound 688, 4′,8′-dimethyl-2′-((trans-3-((5-(trifluoromethyl)-1H-pyrazol-1-yl)methyl)cyclobutyl)amino)-4,5,5′,8′-tetrahydro-2H,6′H-spiro[furan-3,7′-pteridin]-6′-one]	< 300 nM	–
Cc1nc(N[C@H]2C[C@@H](Nc3cc(C(F)(F)F)ccn3)C2)nc2c1NC(=O)[C@H](C(C)C)N2C [Compound 561, (S)-7-isopropyl-4,8-dimethyl-2-((cis-3-((4-(trifluoromethyl)pyridin-2-yl)amino)cyclobutyl)amino)-7,8-dihydropteridin-6(5H)-one]	< 300 nM	–
Cc1nc(NCc2nc(-c3ccccc3)cs2)nc2c1NC(=O)[C@H](C)N2C [Compound 59, (7S)-4,7,8-trimethyl-2-(((4-phenylthiazol-2-yl)methyl)amino)-7,8-dihydropteridin-6(5H)-one]	≥ 5000 nM	–
Cc1nc(NCc2cnn(Cc3ccc(Cl)nc3)c2)nc2c1NC(=O)[C@H](C(C)C)N2C [Compound 414, (7S)-2-(((1-((6-chloropyridin-3-yl)methyl)-1H-pyrazol-4-yl)methyl)amino)-7-isopropyl-4,8-dimethyl-7,8-dihydropteridin-6(5H)-one]	< 300 nM	–
Cc1nc(NCc2cnn(Cc3ccnc(Cl)c3)c2)nc2c1NC(=O)[C@H](C1CC1)N2C [Compound 608, (S)-2-(((1-((2-chloropyridin-4-yl)methyl)-1H-pyrazol-4-yl)methyl)amino)-7-cyclopropyl-4,8-dimethyl-7,8-dihydropteridin-6(5H)-one]	< 300 nM	–
Cc1nc(N[C@H]2C[C@H](Oc3cc(F)c(F)c(F)c3)C2)nc2c1NC(=O)[C@H](COC(C)(C)C)N2C [Compound 674, (S)-7-(tert-butoxymethyl)-4,8-dimethyl-2-((trans-3-(3,4,5-trifluorophenoxy)cyclobutyl)amino)-7,8-dihydropteridin-6(5H)-one]	< 300 nM	–
Cc1nc(NC2CN(C(=O)COc3ccccc3C(F)(F)F)C2)nc2c1NC(=O)[C@H](C(C)C)N2C [Compound 612, (S)-7-isopropyl-4,8-dimethyl-2-((1-(2-(2-(trifluoromethyl)phenoxy)acetyl)azetidin-3-yl)amino)-7,8-dihydropteridin-6(5H)-one]	< 300 nM	–
Cc1nc(N[C@H]2C[C@H](Nc3ccnc(C(F)(F)F)n3)C2)nc2c1NC(=O)[C@H](C(C)C)N2C [Compound 540, (S)-7-isopropyl-4,8-dimethyl-2-((trans-3-((2-(trifluoromethyl)pyrimidin-4-yl)amino)cyclobutyl)amino)-7,8-dihydropteridin-6(5H)-one]	1000 to 5000 nM	–
Cc1nc(NC2CN(C(=O)Cc3cccc(F)c3F)C2)nc2c1NC(=O)[C@H](C(C)C)N2C [Compound 632, (S)-2-((1-(2-(2,3-difluorophenyl)acetyl)azetidin-3-yl)amino)-7-isopropyl-4,8-dimethyl-7,8-dihydropteridin-6(5H)-one]	300 to 1000 nM	–
Cc1nc(N[C@H]2C[C@H](Oc3ccc(C(F)(F)F)cc3)C2)nc2c1N(C)C(=O)[C@H](C)N2C [Compound 341, (7S)-4,5,7,8-tetramethyl-2-((trans-3-(4-(trifluoromethyl)phenoxy)-cyclobutyl)-amino)-7,8-dihydropteridin-6(5H)-one]	< 300 nM	–
Cc1nc(N[C@@H]2CCN(Cc3ccccc3)C2)nc2c1NC(=O)[C@H](C)N2C [Compound 372, (7S)-2-(((R)-1-benzylpyrrolidin-3-yl)amino)-4,7,8-trimethyl-7,8-dihydropteridin-6(5H)-one]	≥ 5000 nM	–
Cc1nc(N[C@H]2C[C@@H](Cc3nc(C(F)(F)F)no3)C2)nc2c1NC(=O)[C@H](C(C)C)N2C [Compound 660, (S)-7-isopropyl-4,8-dimethyl-2-(((1s,3R)-3-((3-(trifluoromethyl)-1,2,4-oxadiazol-5-yl)methyl)cyclobutyl)amino)-7,8-dihydropteridin-6(5H)-one]	–	< 300 nM
Cc1nc(NC2CN(C(=O)c3ccc(OC(F)(F)F)nc3)C2)nc2c1NC(=O)[C@H](C(C)C)N2C [Compound 607, (S)-7-isopropyl-4,8-dimethyl-2-((1-(6-(trifluoromethoxy)nicotinoyl)azetidin-3-yl)amino)-7,8-dihydropteridin-6(5H)-one]	< 300 nM	–
C[C@H]1C(=O)Nc2cnc(N[C@H]3C[C@H](Oc4ccc(F)cc4)C3)nc2N1C [Compound 240, (7S)-2-((trans-3-(4-fluorophenoxy)cyclobutyl)amino)-7,8-dimethyl-7,8-dihydropteridin-6(5H)-one]	1000 to 5000 nM	–
Cc1nc(N[C@H]2C[C@@H](NC(=O)Nc3cc(F)c(F)c(F)c3)C2)nc2c1NC(=O)[C@H](C)N2C [Compound 472, 1-(3,4,5-trifluorophenyl)-3-(cis-3-(((S)-4,7,8-trimethyl-6-oxo-5,6,7,8-tetrahydropteridin-2-yl)amino)cyclobutyl)urea]	< 300 nM	–
CCN1C(=O)[C@H](CCO)N(CC)c2nc(NCc3cnn(Cc4cccc(C(F)(F)F)c4)c3)ncc21 [Compound 49, (7S)-5,8-diethyl-7-(2-hydroxyethyl)-2-(((1-(3-(trifluoromethyl)benzyl)-1H-pyrazol-4-yl)methyl)amino)-7,8-dihydropteridin-6(5H)-one]	< 300 nM	–
Cc1cc(Cn2cc(CNc3nc(C)c4c(n3)N(C)[C@@H](C)C(=O)N4)cn2)cnc1C(F)(F)F [Compound 199, (7S)-4,7,8-trimethyl-2-(((1-((5-methyl-6-(trifluoromethyl)pyridin-3-yl)methyl)-1H-pyrazol-4-yl)methyl)amino)-7,8-dihydropteridin-6(5H)-one]	< 300 nM	–
Cc1nc(N[C@H]2CO[C@H](COc3cc(F)c(F)c(F)c3)C2)nc2c1NC(=O)[C@H](C)N2C [Compound 302, (7S)-4,7,8-trimethyl-2-(((3R,5S)-5-((3,4,5-trifluorophenoxy)methyl)tetrahydrofuran-3-yl)amino)-7,8-dihydropteridin-6(5H)-one]	–	1000 to 5000 nM
COc1ccc(O[C@H]2C[C@H](Nc3nc(C)c4c(n3)N(C)[C@@H](C)C(=O)N4C)C2)cc1F [Compound 351, (7S)-2-((trans-3-(3-fluoro-4-methoxyphenoxy)cyclobutyl)amino)-4,5,7,8-tetramethyl-7,8-dihydropteridin-6(5H)-one]	1000 to 5000 nM	–
